In patent US20160318866A1, “SUBSTITUTED BIPIPERIDINYL DERIVATIVES” (Bayer Pharma Aktiengesellschaft, priority 2013, published 2016):

Columns and labels:
ZDF rat = test: Measurement of blood flow and blood pressure in rats (ZDF rats); assay type: in vivo; conditions: for Change in the femoral flow in %: ZDF rat, steady state, 32 min after start, vs initial flow, mean
Procedure: (§1) Wistar rats (Hsd Cpb:Wu) of a weight of 250-350 g or ZDF rats (ZDF/Crl-Lepr fa/fa) of a weight of 330-520 g were anaesthetized using 2.5% isoflurane in an oxygen/laughing gas mixture (40:60). To determine the blood flow in the carotid artery and the femoral artery, the anaesthetized rat was brought into a supine position, and the left carotid artery and the right femoral artery are then carefully exposed. Blood flow was measured by placing flow probes (Transonic Flowprobe) at the vessels. By introducing a PE50 artery catheter into the left femoral artery, blood pressure and heart rate were determined (Transducer Ref. 5203660: from Braun CH). The substances were administered as a bolus injection or a continuous infusion via a venous catheter in the left femoral vein.
(§2) Following the preparation of the animals, there was a 5 min baseline interval. Infusion of the AR alphα2C receptor antagonist was then started. In the steady state (32 min after the start of the experiment), the femoral flow was determined in relation (% difference) to the initial flow.

Wistar rat = test: Measurement of blood flow and blood pressure in rats (Wistar rats); assay type: in vivo; conditions: steady state, 32 min after start, vs initial flow, mean
Procedure: as §1, §2

[1] = system: diabetic (ZDFfa/fa) and healthy rats (Wistar); test: Assay of perfusion-enhancing substances (microcirculation), laser doppler at the paw; assay type: in vivo, rat; conditions: single oral dose
Text: In diabetic (ZDFfa/fa) and healthy rats (Wistar), a laser doppler probe was fastened under anaesthesia conditions (isoflurane anaesthesia) at the sole of the paw for measuring cutaneous microcirculation. The test animals were once treated orally with the test substances. During the experiment, microperfusion and temperature of the lower extremities were documented continuously. Here, a temperature-sensitive laser doppler probe (Periflux, O2C) was fastened with adhesive to the paws of the animals, allowing the measurement of microperfusion and skin temperature. The microcirculation measurement values were measured on both paws 30 min after oral administration of the test substance. […] Also stated is the MED for the significant increase of skin temperature (ttest).

[2] = anaesthetized rats, same experiment as femoral flow, strain not specified

CC1CCCN(C2CCN(C(=O)c3ccc(C(C)(C)O)cc3)CC2)C1 (single isomer, unassigned) [Example 8, [4-(1-Hydroxy-1-methylethyl)phenyl)](3-methyl-1,4′-bipiperidin-1′-yl)methanone, (−)-enantiomer]
Change in the femoral flow in % (ZDF rat; 3 μg/kg/min infusion): 12.0 (n = 4) %
Change in the femoral flow in % (ZDF rat; 10 μg/kg/min infusion): 127.9%
Change in the femoral flow in % (ZDF rat; 30 μg/kg/min infusion): 144.4%
blood pressure (ZDF rat; [2]): no changes
heart rate (ZDF rat; [2]): no changes
Change in the femoral flow in % (Wistar rat; 10 μg/kg/min): 14.2 (n = 3) %
Change in the femoral flow in % (Wistar rat; 30 μg/kg/min infusion): 3.1 (n = 5) %
Change in the femoral flow in % (Wistar rat; 300 μg/kg/min infusion): 15.3 (n = 5) %
factor by which microcirculation is improved at this dose compared to placebo ([1]; at the MED, 30 min after administration): 2.3 x
MED [mg/kg] skin temperature ([1]; minimum effective dose for significant increase of skin temperature (ttest)): 1 mg/kg
MED [mg/kg] microcirculation ([1]; minimum effective dose for significantly improved microcirculation vs placebo, 30 min after administration): 1 mg/kg
